We go through 2 compounds from paper PMC12254266, “Multicolored sequential resonance energy transfer for detection of simultaneous ligand binding at G protein-coupled receptors” (Nature Communications, 2025).

The target of the test is FFA1-Nluc (Homo sapiens, UniProt O14842). Description: DISCo-BRET (endpoint, spectra scan, kinetics) with TUG-2591 and TUG-2597 at C terminal Nluc tagged FFA1. The format is binding. The arrangement: expressed in transfected cells. Particulars: for pIC50 DISCo-BRET NBD/Nluc / pIC50 DISCo-BRET SulfoCy5/NBD: NC = No competition; for pIC50 DISCo-BRET SulfoCy5/NBD: one site model. On the procedure:
Nluc-FFA1 or FFA1-Nluc Flp-In T-REx 293 cells were plated at 50,000 cells per well in poly-D-lysine coated white 96-well plates. Cells were cultured for 24 h in the plate before medium was replaced with medium containing 100 ng/mL of doxycycline to induce receptor expression. After culturing for a further 24 h, culture medium was removed, cells washed with HBSS and incubated in HBSS for 30 min. For all DISCo-BRET formats Nano-Glo substrate was then added at a 1:800 final dilution and cells incubated for 10 min. Following substrate addition experimental set up different among the three formats: endpoint, spectra scan, and kinetics.
For endpoint experiments all fluorescent and unlabelled ligands were added to the cells and incubated for 5 min at 37 °C. Luminescent emission was then measured using a CLARIOstar microplate reader with monochromator set at 450–60 nm (Nluc), 540−60 nm (NBD) and 690–100 nm (SulfoCy5). BRET ratios were then calculated as either SulfoCy5 emission divided by NBD emission, SulfoCy5 emission divided by Nluc emission, or NBD emission divided by Nluc emission.
For spectra scan experiments all indicated fluorescent and unlabelled ligands were added to the cells and cells incubated for 5 min at 37 °C. Luminescence emissions were then measured from each well of the plate from 440 nm – 740 nm with a 5 nm resolution using a CLARIOstar microplate. Luminescent emission spectra were then normalised as a percentage of the maximal Nluc emission peak ( ~ 460 nm), then subtracted with the spectrum obtained in the presence of high concentrations of ligands competing for both binding sites to obtain specific BRET binding spectra.
In kinetic DISCo-BRET experiments plates were placed directly in a CLARIOstar plate reader set to 25 °C 10 min after Nano-Glo substrate addition. Luminescent measurements were then taken with three sequential measurements per well with the monochromator set to 450–60 nm (Nluc), 540 - 60 nm (NBD) and 690–100 nm (SulfoCy5) taken in 20 or 30 s intervals. After 5 min of background measurements, the plate reader was paused for the first indicated fluorescent ligand(s) addition, before immediately returning the plate to the reader to continue luminescence readings. After 5 min, the reader was again paused to add the second fluorescent ligand (association assays) or competing ligand(s) (dissociation assays), before immediately continuing the measurements for the indicated time. Non-specific control binding was obtained by adding the indicated competing ligand(s) 5 min prior to the addition of the first fluorescent ligand.

Setting [1] is: 100 nM TUG-2591 and […] TUG-2597.

Structures are written as SMILES. Where “and” joins values, the source holds several entries; their conditions need not be identical. Identical values can stand only once.

Sequence of FFA1-Nluc (O14842 whole entry): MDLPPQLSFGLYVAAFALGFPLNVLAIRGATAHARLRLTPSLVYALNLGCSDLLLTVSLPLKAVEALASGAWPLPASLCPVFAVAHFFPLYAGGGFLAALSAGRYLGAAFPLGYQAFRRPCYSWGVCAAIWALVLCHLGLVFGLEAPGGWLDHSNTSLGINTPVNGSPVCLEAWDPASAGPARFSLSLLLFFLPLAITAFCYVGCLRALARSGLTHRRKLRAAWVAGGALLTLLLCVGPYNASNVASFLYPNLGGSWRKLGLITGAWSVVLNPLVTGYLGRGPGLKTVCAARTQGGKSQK

As to `CCCN1C(=O)c2ccccc2[C@@H](C(=O)O)[C@@H]1c1ccc(OCc2cccc(C(F)(F)F)c2)cc1` [TUG-2743], the “pIC50 DISCo-BRET NBD/Nluc” value under setting [1] is given as 6.1±0.2. Besides, the “pIC50 DISCo-BRET SulfoCy5/NBD” value under setting [1] was 6.0±0.1. Further, the “Specific BRET (690/540), % of control” value is, setting by setting: (log[Ligand] -5, Figure 4Aiii, single replicate values (technical duplicate)) 6.26 % of control and 15.30 % of control and 0.00 % of control and 23.39 % of control and 7.57 % of control and 16.15 % of control and 4.80 % of control and 5.42 % of control; (log[Ligand] -5.5, Figure 4Aiii, single replicate values (technical duplicate)) 25.12 % of control and 40.23 % of control and 23.90 % of control and 52.64 % of control and 8.58 % of control and 35.72 % of control and 22.62 % of control and 24.58 % of control; (log[Ligand] -6, Figure 4Aiii, single replicate values (technical duplicate)) 58.42 % of control and 58.33 % of control and 46.92 % of control and 53.66 % of control and 32.09 % of control and 48.03 % of control and 43.57 % of control and 46.72 % of control; (log[Ligand] -6.5, Figure 4Aiii, single replicate values (technical duplicate)) 76.32 % of control and 72.57 % of control and 71.58 % of control and 84.17 % of control and 56.21 % of control and 64.88 % of control and 65.73 % of control and 61.96 % of control; (log[Ligand] -7, Figure 4Aiii, single replicate values (technical duplicate)) 89.22 % of control and 91.72 % of control and 94.47 % of control and 101.84 % of control and 86.98 % of control and 84.36 % of control and 91.26 % of control and 83.54 % of control; (log[Ligand] -8, Figure 4Aiii, single replicate values (technical duplicate)) 93.65 % of control and 94.71 % of control and 131.47 % of control and 106.17 % of control and 87.89 % of control and 98.79 % of control and 100.59 % of control and 92.67 % of control. The “Specific BRET (690/540), % of control” value (log[Ligand] -9, Figure 4Aiii, single replicate values (technical duplicate)) is 99.33 % of control and 100.67 % of control and 26.06 % of control and 102.35 % of control and 91.83 % of control and 93.74 % of control. For the same compound, the “Specific BRET (540/450), % of control” value reads like this: (log[Ligand] -5, Figure 4Biii, single replicate values (technical duplicate)) 61.42 % of control and 37.32 % of control and -37.32 % of control and -3.93 % of control and 3.93 % of control and 54.66 % of control and 43.23 % of control; (log[Ligand] -5.5, Figure 4Biii, single replicate values (technical duplicate)) 68.58 % of control and 86.33 % of control and -8.16 % of control and -102.04 % of control and 41.80 % of control and 13.93 % of control and 39.36 % of control and 39.62 % of control; (log[Ligand] -6, Figure 4Biii, single replicate values (technical duplicate)) 100.93 % of control and 79.17 % of control and 5.25 % of control and 9.91 % of control and 41.19 % of control and 34.87 % of control and 62.06 % of control; (log[Ligand] -7, Figure 4Biii, single replicate values (technical duplicate)) 106.08 % of control and 110.38 % of control and 76.97 % of control and 86.30 % of control and 79.83 % of control and 51.81 % of control and 67.53 % of control and 67.76 % of control; (log[Ligand] -8, Figure 4Biii, single replicate values (technical duplicate)) 118.40 % of control and 124.70 % of control and 235.57 % of control and 32.65 % of control and 76.75 % of control and 53.35 % of control and 80.89 % of control and 68.94 % of control; (log[Ligand] -9, Figure 4Biii, single replicate values (technical duplicate)) 129.56 % of control and 130.71 % of control and -41.98 % of control and 129.45 % of control and 107.24 % of control and 49.50 % of control and 87.02 % of control and 76.46 % of control. Besides, under “percentage of binding obtained in the absence of competing ligand”, the “'bottom' of the IC50 curve, DISCo-BRET NBD/Nluc” value is on record as 10%. For the same compound, the “'bottom' of the IC50 curve, DISCo-BRET SulfoCy5/NBD” value (percentage of binding obtained in the absence of competing ligand, 100 nM TUG-2591 and […] TUG-2597) is reported as 3.2%. In addition, the “pKi DISCo-BRET SulfoCy5/NBD” value (using Kd TUG-2591 57 nM) is on record as 6.5±0.1.
With `CC/C=C\C/C=C\C/C=C\CCCCCCCC(=O)O` [aLA, α-linolenic acid, reference compound], under setting [1], the “pIC50 DISCo-BRET NBD/Nluc” value is reported as ~ 2.9. The “pIC50 DISCo-BRET SulfoCy5/NBD” value under setting [1] is on record as ~ 3.7. Also, the “Specific BRET (540/450), % of control” value is, setting by setting: (log[Ligand] -3.5, Figure 4Bi, single replicate values (technical duplicate)) 354.98 % of control and 422.66 % of control and 352.08 % of control and 364.14 % of control and 218.20 % of control and 190.12 % of control and 192.71 % of control and 171.70 % of control; (log[Ligand] -4, Figure 4Bi, single replicate values (technical duplicate)) 179.15 % of control and 260.42 % of control and 251.25 % of control and 232.54 % of control and 120.10 % of control and 104.16 % of control and 145.44 % of control and 143.73 % of control; (log[Ligand] -4.5, Figure 4Bi, single replicate values (technical duplicate)) 155.59 % of control and 151.36 % of control and 193.87 % of control and 183.26 % of control and 24.44 % of control and 77.47 % of control and 109.72 % of control and 124.03 % of control; (log[Ligand] -5, Figure 4Bi, single replicate values (technical duplicate)) 123.87 % of control and 127.19 % of control and 164.97 % of control and 169.96 % of control and 63.60 % of control and 42.81 % of control and 103.55 % of control and 110.64 % of control; (log[Ligand] -5.5, Figure 4Bi, single replicate values (technical duplicate)) 115.11 % of control and 123.26 % of control and 154.99 % of control and 156.24 % of control and 24.44 % of control and 64.99 % of control and 93.96 % of control and 98.42 % of control; (log[Ligand] -6, Figure 4Bi, single replicate values (technical duplicate)) 117.22 % of control and 113.60 % of control and 140.23 % of control and 145.01 % of control and 35.88 % of control and 33.45 % of control and 94.09 % of control and 108.27 % of control. The “Specific BRET (540/450), % of control” value (log[Ligand] -7, Figure 4Bi, single replicate values (technical duplicate)) is 110.27 % of control and 80.36 % of control and 117.15 % of control and 115.28 % of control and 96.88 % of control and 77.82 % of control and 92.78 % of control and 101.71 % of control. The “Specific BRET (690/540), % of control” value was 81.41 % of control and 79.89 % of control and 110.36 % of control and 102.58 % of control and 55.19 % of control and 61.69 % of control and 79.93 % of control (log[Ligand] -4.5, technical duplicate); 89.67 % of control and 83.59 % of control and 104.96 % of control and 115.39 % of control and 81.83 % of control and 84.93 % of control and 95.09 % of control and 92.80 % of control (log[Ligand] -5, technical duplicate); 91.96 % of control and 95.98 % of control and 110.87 % of control and 118.78 % of control and 93.29 % of control and 101.24 % of control and 95.01 % of control and 95.16 % of control (log[Ligand] -5.5, technical duplicate); 92.39 % of control and 86.20 % of control and 111.87 % of control and 113.13 % of control and 97.73 % of control and 97.01 % of control and 100.19 % of control and 94.25 % of control (log[Ligand] -7, technical duplicate); 86.09 % of control and 86.20 % of control and 111.62 % of control and 112.25 % of control and 100.93 % of control and 101.65 % of control and 99.73 % of control and 101.33 % of control (log[ligand] -6, technical duplicate).
